{"source": "patent US20220106595A1", "about": "“ANTIBACTERIAL ANTISENSE AGENTS” (priority 2018, published 2022)", "key": {"E. coli (ATCC25922)": {"tested_on": "E. coli (ATCC25922)", "assay": "Urinary tract infection mouse model, E. coli (ATCC25922)", "assay_type": "in vivo", "conditions": "48 h post treatment", "description": "Efficacy of PED-011 Against E. coli (ATCC25922) in the Urinary Tract Infection Mouse Model\nFemale BALB/c mice were infected trans-ureth rally with ˜ 5×10^8 CFU/animal E. coli (ATCC 25922). Four hours post infection animals were treated twice daily (Q12 h) orally with ciprofloxacin at 30 mg/kg and with single IV doses of PED-011 at 10 and 30 mg/kg (u.i.d). Ten animals from each group were terminated at 48 h post treatment, bladder and kidneys were collected to determine the bacterial load.\n(§1) The vehicle for Ciprofloxacin was 0.25% of Carboxy Methyl Cellulose (CMC) (w/v) and PBS was used for PED-011. PED-011 was dissolved in PBS at 2 & 6 mg/mL. At four hours post infection, animals were treated with the first oral dose of ciprofloxacin and the single dose of PED-011 (10 and 30 mg/kg, IV, single bolus dose, 5 ml/kg dose volume). Animals received further doses of oral ciprofloxacin as per the dosing schedule."}, "[1]": {"tested_on": "E. coli (CFT073, ATCC®700928™)", "assay": "Urinary tract infection mouse model, uropathogenic E. coli (CFT073, ATCC 700928)", "assay_type": "in vivo", "description": "Efficacy of PED-011 Against E. coli (CFT073, ATCC®700928™) in the Urinary Tract Infection Mouse Model; Challenge with a Uropathogenic Strain\n(§2) Female BALB/c mice were infected trans-urethrally with ˜5×10^8 CFU/animal E. coli (CFT073, ATCC®700928™). Twenty-four hours post infection animals were treated twice daily (Q12 h) orally with ciprofloxacin at 30 mg/kg and with single IV doses of PED-011 at 3, 10 and 30 mg/kg (u.i.d). Ten animals from each group were terminated at 48 h post treatment (72 h post infection); bladder and kidneys were collected to determine the bacterial load.\nas §1, with “PBS at 0.6, 2 &” for “PBS at 2 &”, “mg/mL. At twenty-four hours post” for “mg/mL. At four hours post”"}, "E. coli (ATCC BAA-2340)": {"tested_on": "E. coli (ATCC BAA-2340)", "assay": "Urinary tract infection mouse model, resistance strain E. coli (ATCC BAA-2340)", "assay_type": "in vivo", "conditions": "48 h post treatment", "description": "Efficacy of PED-011 Against E. coli (ATCC BAA-2340) in the Urinary Tract Infection Mouse Model; Challenge with a Resistance Strain\nas §2, with “(ATCC BAA-2340).” for “(CFT073, ATCC®700928™).”, “at” for “at 3,”, “treatment;” for “treatment (72 h post infection);”\nas §1, with “twenty-four hour” for “four hours”, “were be” for “were”"}, "A. baumannii (ATCC19606)": {"tested_on": "A. baumannii (ATCC19606)", "assay": "Neutropenic lung infection model in mice, A. baumannii (ATCC19606)", "assay_type": "in vivo", "conditions": "FIG. 7"}, "[2]": {"assay": "Log D determination (shake-flask, PBS/1-octanol)", "assay_type": "physicochemical", "conditions": "PBS pH 7.4 / 1-octanol", "description": "(v) Log D Determinations:\nLog D(PBS) determinations is performed in 96 well microtitre plates using a miniaturised “shake-flask” method. […] The plates are then capped and mixed vigorously for 1 hour on a microtitre plate shaker, after which they were left to stand, allowing the PBS and octanol phases to separate.\nWhere AUCstd and AUCpbs are the peak areas from the standard and test ion chromatograms respectively."}}}
{"molecule": "O=C(O)c1cn(C2CC2)c2cc(N3CCNCC3)c(F)cc2c1=O", "note": "[Ciprofloxacin, reference compound]", "values": [{"measurement": "antibacterial effect in bladder (Log10 CFU/g) vs 4 h control and vehicle control", "setting": "E. coli (ATCC25922); 30 mg/kg, p.o., Q12 h, p<0.05, FIG. 1", "value": "significant antibacterial effect"}, {"measurement": "antibacterial effect in kidneys (Log10 CFU/g) vs 4 h control and vehicle control", "setting": "E. coli (ATCC25922); 30 mg/kg, p.o., Q12 h, p<0.05, FIG. 2", "value": "significant antibacterial effect"}, {"measurement": "bactericidal activity in bladder wrt 24 h PI control and vehicle control", "setting": "[1]; 30 mg/kg, p.o., b.i.d. Q12h, 72 h post infection, FIG. 3", "value": "significant (p<0.05) bactericidal activity"}, {"measurement": "bactericidal activity in kidney wrt 24 h PI control and vehicle control", "setting": "[1]; 30 mg/kg, p.o., b.i.d. Q12h, 72 h post infection, p<0.05, FIG. 4", "value": "significant bactericidal activity"}, {"measurement": "antibacterial effect in bladder vs 24 h control and vehicle control", "setting": "E. coli (ATCC BAA-2340); 30 mg/kg, p.o., Q12 h, p<0.05, FIG. 5", "value": "significant antibacterial effect"}, {"measurement": "antibacterial effect in kidneys vs 24 h control and vehicle control", "setting": "E. coli (ATCC BAA-2340); 30 mg/kg, p.o., Q12 h, p<0.05, FIG. 6", "value": "significant antibacterial effect"}, {"measurement": "antibacterial effect in lung vs 52 h vehicle control", "setting": "A. baumannii (ATCC19606); 10 mg/kg, po, Q12 h, p<0.05", "value": "significant antibacterial effect"}]}
{"molecule": "PED-011: Linker-6 (Sugar-L-Ala-NH(CH2)3CO) coupled to PMO PED-1, CTT CGA TAG TG (Sequence ID 57, AcpP) (CTTCGATAGTG; all phosphorodiamidate morpholino (PMO); Linker-6 sugar-L-Ala conjugate attached, position not given here, further chemistry not fully specified)", "values": [{"measurement": "antibacterial activity in bladder vs 4 h and vehicle control", "setting": "E. coli (ATCC25922); 10 mg/kg, IV, single dose, FIG. 1", "value": "not significantly effective"}, {"measurement": "antibacterial activity in kidneys vs 4 h PI control and vehicle control", "setting": "E. coli (ATCC25922); 10 mg/kg, IV, single dose, p<0.05, FIG. 2", "value": "significant antibacterial activity"}, {"measurement": "antibacterial activity in bladder vs 4 h PI control and vehicle control", "setting": "E. coli (ATCC25922); 30 mg/kg, IV, single dose, p<0.05, FIG. 1", "value": "significant antibacterial activity"}, {"measurement": "antibacterial activity in kidneys vs 4 h PI control and vehicle control", "setting": "E. coli (ATCC25922); 30 mg/kg, IV, single dose, p<0.05, FIG. 2", "value": "significant antibacterial activity"}, {"measurement": "antibacterial effect in kidney compared to vehicle control", "setting": "[1]; 30 mg/kg, IV, 1 dose, p<0.05, FIG. 4", "value": "significant effect"}, {"measurement": "mean bacterial counts in bladder", "setting": "[1]; 3, 10 and 30 mg/kg, IV, 1 dose, FIG. 3", "value": "dose dependent mean reduction in bacterial counts"}, {"measurement": "antibacterial effect in kidney compared to vehicle control", "setting": "[1]; 3, 10 and 30 mg/kg, IV, 1 dose, FIG. 4", "value": "dose dependent antibacterial effect"}, {"measurement": "antibacterial effect in bladder wrt vehicle control", "setting": "[1]; 3, 10 and 30 mg/kg, IV, 1 dose, p>0.05, FIG. 3", "value": "did not show significant antibacterial effect"}, {"measurement": "antibacterial activity in bladder vs 4 h and vehicle control", "setting": "E. coli (ATCC BAA-2340); 10 mg/kg, IV, single dose, FIG. 5", "value": "not significantly effective"}, {"measurement": "antibacterial activity in kidneys vs 4 h PI control and vehicle control", "setting": "E. coli (ATCC BAA-2340); 10 mg/kg, IV, single dose, p<0.05, FIG. 6", "value": "significant antibacterial activity"}, {"measurement": "antibacterial activity in bladder vs 24 h PI control and vehicle control", "setting": "E. coli (ATCC BAA-2340); 30 mg/kg, IV, single dose, FIG. 5", "value": "a reduction but not statistically significant antibacterial activity"}, {"measurement": "antibacterial activity in kidneys vs 24 h PI control and vehicle control", "setting": "E. coli (ATCC BAA-2340); 30 mg/kg, IV, single dose, p<0.05, FIG. 6", "value": "significant antibacterial activity"}, {"measurement": "Log D7.4", "setting": "[2]", "value": 0.74}]}
{"molecule": "PED-012: Linker-6 coupled to PMO PED-2, TCA AAT GAG GC (Sequence ID 91, ftsZ) (TCAAATGAGGC; all phosphorodiamidate morpholino (PMO); Linker-6 conjugate attached at 3' morpholino end, 5' end group not given here, further chemistry not fully specified)", "values": [{"measurement": "antibacterial activity in lung vs vehicle control at 52 h PI", "setting": "A. baumannii (ATCC19606); 10 mg/kg, IN, single dose, p>0.05", "value": "not significantly effective"}, {"measurement": "antibacterial activity in lung vs 52 h vehicle control", "setting": "A. baumannii (ATCC19606); 30 mg/kg, IN, single dose, p<0.05", "value": "significant antibacterial activity"}]}
